{
  "source": "paper PMC8536644",
  "about": "“Enigmatic mechanism of the N-vinylpyrrolidone hepatocarcinogenicity in the rat” (Archives of Toxicology, 2021)",
  "key": {"CYP1A [1]": {"system": "CYP1A", "assay": "EROD assay, liver microsomes of NVP-treated rats (AhR marker)", "assay_type": "in vivo, rat", "settings": "male rats", "procedure": "(§1) The alkoxyresorufin dealkylase (AROD) assays were based on the method by Burke et al. ([1994]).\n(§2) The frozen livers and lungs of the NVP-treated male Wistar rats were thawed and washed with isotonic (0.9%) NaCl solution. The tissues were ice-cooled homogenized (1 g tissue: 3 mL 0.25 M saccharose in 1 mM disodium EDTA, pH 7.4) and centrifuged (9000 g, 15 min, 4 °C). The supernatant fraction was centrifuged (100 000 g, 60 min, 4 °C). The resulting supernatant fraction was used for the palmitoyl-CoA-oxidase assay described further down. The pellet was taken up in 150 mM aqueous KCl solution, recentrifuged (100 000 g, 60 min, 4 °C) and the pellet taken up in 1 mL/g liver or 0.5 mL/g lung resuspension buffer (1 mM GSH, 1 mM disodium EDTA, 4 mM MgCl2, 0.1 M KH2PO4, pH 7.5 and 4% glycerol). Aliquots were stored at − 80 °C.\n(§3) For determination of the enzyme activities in triplicates, 85 µL master mix (100 mM TrisHCl pH 7.5, 2 mM 5’AMP, 5 mM G-6-P, 10 U G-6-P-DH, 10 mM Dicumarol, 10 mM MgCl2, either 2 µM EROD or 10 µM PROD or 5 µM BROD) was added to 10 µL microsomal fraction (1 mg protein/mL). The reaction was started by the addition of 5 µL 2 mM NADPH (dissolved in 100 mM TrisHCl pH 7.5) followed by incubation at 37 °C for 16 min. The activity was determined by measuring the increase of the fluorescence (excitation at 550 nm, emission at 585 nm) due to resorufin formation compared with resorufin standards, which had been prepared by dissolving tenfold concentrated solutions in DMSO, which were then diluted tenfold in 100 mM TrisHCl pH 7.5."}, "CYP 2B/3A": {"system": "CYP 2B/3A", "assay": "BROD assay, lung microsomes", "assay_type": "in vivo, rat", "settings": "male rats", "procedure": "as §1, §2, §3"}, "CYP1A [2]": {"system": "CYP1A", "assay": "EROD inhibition control in Aroclor 1254-induced rat liver microsomes", "assay_type": "biochemical", "settings": "for EROD enzyme activity: 0 µM control 821.5 ± 54.9", "procedure": "as §3\n(§4) As a method control the described AROD assay was performed with microsomal fractions derived from liver and lung of male Wistar rats which had been treated i.p. for 5 days with aroclor 1254 (500 mg/kg bw). These control assays were performed in presence of 1 μM, 10 μM or 100 μM NVP, respectively, in order to check for potential interactions of NVP with the substrate turnover in the AROD assay."}, "CYP2B": {"system": "CYP2B", "assay": "PROD inhibition control in Aroclor 1254-induced rat liver microsomes", "assay_type": "biochemical", "settings": "for PROD enzyme activity: 0 µM control 78.9 ± 3.2", "procedure": "as §3, §4"}, "primary rat hepatocytes": {"system": "primary rat hepatocytes", "assay": "Gene expression analysis (Affymetrix) in cultivated rat hepatocytes", "assay_type": "cell-based", "settings": "24 h; for Nrg1 upregulation / PDK4 upregulation / Atf3 upregulation: adj. p < 0.001", "procedure": "Isolation and cultivation of primary rat hepatocytes was performed according to a published standard operation procedure (Godoy et al. [2013]) and Affymetrix gene array analysis as described in Grinberg et al. ([2018]). Briefly, male Wistar rats with a body weight of 220–300 g were purchased from Charles River (Sulzfeld, Germany). The animals had free access to food (sniff, Soest, Germany) and water and were kept under controlled temperature (18–26 °C), humidity (30–70%) and lighting (12 h light/dark circle). Prior to any experimental procedure, the animals were acclimated for a minimum of 6 days. This study was approved by the local committee for the welfare of experimental animals and was performed in accordance with national legislation. RNA was extracted from cultivated primary hepatocytes as described by Heise et al. ([2012]). Incubation of the cultivated rat hepatocytes with the test compounds was performed for 24 h. Rat hepatocytes were cultivated as sandwich cultures using 6well dishes. Three independent incubations with the test compound were performed. For Affymetrix gene chip analysis samples isolated from the 6-well dishes were stored in RNAprotect reagent from Qiagen until isolation of RNA. The RNA was quantified using a NanoDrop N-1000 spectrophotometer, and the integrity of RNA was confirmed with a standard sense automated gel electrophoresis system. Samples were used for transcriptional profiling only when their RNA quality indicator (RQI) number was > 8. First-strand cDNA was synthesized from 100 ng total RNA using an oligo-dT primer with an attached T7 promoter sequence, followed by the complementary second strand. The double-stranded cDNA molecule was used for in vitro transcription (IVT, standard Affymetrix procedure) using Genechip 3′ IVT Express Kit. During synthesis of the aRNA (amplified RNA, also commonly referred to as cRNA), a biotinylated nucleotide analogue was incorporated, which served as a label for the message. After amplification, aRNA was purified with magnetic beads and 15 µg of aRNA was fragmented with the fragmentation buffer as per the manufacturer’s instructions. Then 12.5 µg fragmented aRNA was hybridized with Affymetrix Rat Genome 230 2.0 Arrays. The chips were placed in a GeneChip Hybridization Oven-645 for 16 h at 60 rpm and 45 °C. For staining and washing, Affymetrix HWS kits were used on a Genechip Fluidics Station-450. For scanning, the Affymetrix GeneChip Scanner-3000-7G was used, and the image and quality control assessments were performed with Affymetrix GCOS software. All reagents and instruments were acquired from Affymetrix (Affymetrix, Santa Clara, CA, USA). The generated CEL files were used for further statistical analysis as described in Grinberg et al., 2018)."}, "rat hepatocytes": {"system": "rat hepatocytes", "assay": "MTT assay in cultivated rat hepatocytes", "assay_type": "cell-based", "settings": "up to 1000 µM"}, "[3]": {"system": "p53 transcription factor activity", "design": "method as in ToxCast (comptox.epa.gov dashboard)", "settings": "ref ToxCast (comptox.epa.gov dashboard); read-out: AC50 of the p53 transcription factor activity modulation; cited from earlier work"}, "Klebsiella pneumoniae": {"system": "Klebsiella pneumoniae", "settings": "ref MAK [1994]; cited from earlier work"}, "Wistar rats": {"system": "Wistar rats", "assay": "Clinical observations and body weight during 5-day inhalation", "protocol": "Eight-week-old male and female Wistar Crl:WI (Han) rats were obtained from Charles River Laboratories, Sulzfeld, Germany and acclimatized for 10 days. They were kept at 20–24 °C at a humidity of 30–70% in groups of six animals in polysulfone cages (Tecniplast) with free access to water and feed (10 mm pellets, Provimi Kliba, Kaiseraugst, Switzerland).\nThe animals were acclimatized to the whole-body exposure chambers for 2 days using the inhalation stream without the test substance. […] Animals were weighed before the 2-day acclimatation to the exposure chambers and subsequently before and after the exposure to the test substance. Animals were killed in the morning after the last exposure period to perform the examinations described further down.\nFor the inhalation experiments, two animals per cage (DK III, Becker & CO., Castrop-Rauxel, Germany) were kept in the glass–steel inhalation chambers (volume approximately 200 L) without access to feed and water. For each test dose a constant amount of NVP was pumped by continuous infusion pumps PHD Ultra (Havard Apparatus, Holliston) to an evaporator (Glasverdampfer BASF, Ludwigshafen, Germany; Thermostat Julabo Labortechnik, Seelbach, Germany). The thus generated vapor was combined with air and introduced into the exposure chamber."}},
  "data": [
    {"smiles": "C=CN1CCCC1=O", "note": "[NVP, N-vinylpyrrolidone]", "values": [
      {"measurement": "Liver microsomal EROD activity", "setting": "CYP1A [1]; 5 ppm", "value": "20.5 ± 3.6", "unit": "pmol/min/mg protein"},
      {"measurement": "Liver microsomal EROD activity", "setting": "CYP1A [1]; 10 ppm", "value": "22.0 ± 5.8", "unit": "pmol/min/mg protein"},
      {"measurement": "Liver microsomal EROD activity", "setting": "CYP1A [1]; 20 ppm", "value": "16.9 ± 6.4", "unit": "pmol/min/mg protein"},
      {"measurement": "BROD activity in lung microsomes", "setting": "CYP 2B/3A; 5 ppm", "value": "22.9 ± 11.0", "unit": "pmol/min/mg protein"},
      {"measurement": "BROD activity in lung microsomes", "setting": "CYP 2B/3A; 10 ppm", "value": "25.5 ± 19.8", "unit": "pmol/min/mg protein"},
      {"measurement": "BROD activity in lung microsomes", "setting": "CYP 2B/3A; 20 ppm", "value": "82.1 ± 76.8", "unit": "pmol/min/mg protein"},
      {"measurement": "EROD enzyme activity", "setting": "CYP1A [2]; 1 µM NVP", "value": "859.9 ± 14.1", "unit": "pmol/min/mg protein"},
      {"measurement": "EROD enzyme activity", "setting": "CYP1A [2]; 10 µM NVP", "value": "827.9 ± 13.6", "unit": "pmol/min/mg protein"},
      {"measurement": "EROD enzyme activity", "setting": "CYP1A [2]; 100 µM NVP", "value": "858.9 ± 33.9", "unit": "pmol/min/mg protein"},
      {"measurement": "Inhibition of EROD activity", "setting": "CYP1A [2]; 1, 10 or 100 µM NVP", "value": "does not lead to inhibition"},
      {"measurement": "PROD enzyme activity", "setting": "CYP2B; 1 µM NVP", "value": "88.6 ± 3.3", "unit": "pmol/min/mg protein"},
      {"measurement": "PROD enzyme activity", "setting": "CYP2B; 10 µM NVP", "value": "92.1 ± 6.0", "unit": "pmol/min/mg protein"},
      {"measurement": "PROD enzyme activity", "setting": "CYP2B; 100 µM NVP", "value": "94.6 ± 2.3", "unit": "pmol/min/mg protein"},
      {"measurement": "Inhibition of PROD activity", "setting": "CYP2B; 1, 10 or 100 µM NVP", "value": "does not lead to inhibition"},
      {"measurement": "Nrg1 upregulation", "setting": "primary rat hepatocytes; 40 µM", "value": 3.5, "unit": "fold"},
      {"measurement": "PDK4 upregulation", "setting": "primary rat hepatocytes; 40 µM", "value": 3.5, "unit": "fold"},
      {"measurement": "Atf3 upregulation", "setting": "primary rat hepatocytes; 200 µM", "value": 5.1},
      {"measurement": "Nrg1 upregulation", "setting": "primary rat hepatocytes; 200 µM", "value": 6.2, "unit": "fold"},
      {"measurement": "PDK4 upregulation", "setting": "primary rat hepatocytes; 200 µM", "value": 5.9, "unit": "fold"},
      {"measurement": "Atf3 upregulation", "setting": "primary rat hepatocytes; 1000 µM", "value": 7.1},
      {"measurement": "Nrg1 upregulation", "setting": "primary rat hepatocytes; 1000 µM", "value": 7.3, "unit": "fold"},
      {"measurement": "PDK4 upregulation", "setting": "primary rat hepatocytes; 1000 µM", "value": 8.8, "unit": "fold"},
      {"measurement": "Lowest concentration with expression changes (PCA)", "setting": "primary rat hepatocytes; 8, 40, 200 and 1000 µM tested", "value": 8, "unit": "µM"},
      {"measurement": "Cytotoxicity in MTT assay", "setting": "rat hepatocytes", "value": "no cytotoxicity observed"},
      {"measurement": "AC50", "setting": "[3]", "value": 40, "unit": "nM"},
      {"measurement": "Klebsiella pneumoniae fluctuation (point mutation) test result", "setting": "Klebsiella pneumoniae", "value": "negative"},
      {"measurement": "Mortality during the 5-day exposure", "setting": "Wistar rats; 5, 10, 20 ppm inhalation, male and female", "value": "None of the exposed rats died"},
      {"measurement": "Body weight increase", "setting": "Wistar rats; 10 ppm, males, p ≤ 0.05", "value": "reduced"},
      {"measurement": "Slightly increased salivation, animals affected", "setting": "Wistar rats; day 2 of exposure", "value": "1 of 48"},
      {"measurement": "Red nose effluent, animals affected", "setting": "Wistar rats; days 4 or 5 of exposure", "value": "5 of 48"}
    ]}
  ]
}
